Measured values reported in patent US11827624B2, “Covalent immune recruiter compounds for immune cell recognition and associated uses” (McMaster University, priority 2020, dated 2023).

Test system: PSMA+HEK cells
Assay: Luminescence ADCC reporter (CD16α activation) assay with mmAb
Format: cell-based, human
Details: antibody 10^−7-10^−9 M
Description: Covalent vs. non-covalent antibody recruitment were compared in functional immune assays. Activation of NK cell CD16α immune receptors was assessed via luminescence based ADCC assays. ADCC was quantified using the ADCC Reportor Bioassay kit (Promega G7010). All ADCC induced luminescence was measured on a SpectraMax i3 plate reader (Molecular Devices). The human IgG isotype control used was purchased from Jackson ImmunoResearch (009-000-003). The human IgG1 monoclonal anti-DNP antibody (mAb) was purchased from Acrobiosystems (DNP-M2). Human IgG from serum was purchased from Innovative Research ([…]1000MG). Anti-DNP depleted serum was made from human IgG from serum (Innovative Research). For PSMA competition controls, 2-PMPA was purchased from Sigma (SML1612). Hek-293T (PSMA+/−) cell lines were generously given by Dr. Cyril Barinka (Institute of Biotechnology CAS, Czech Republic). Ultra low IgG FBS was purchased from Fischer Scientific (A3381901). RPMI-1640 was purchased as a powder from Fischer Scientific (31800089) and resuspended. DMEM was purchased as a powder from Fischer Scientific (12800082) and resuspended. Pen/Strep was purchased from Fischer Scientific (15140-122). FBS was purchased from Fischer Scientific (12484-028). Zeocin was purchased from Fischer Scientific (R25001). HEK-PSMA cells were cultured in DMEM media with 2 mM L-glut, 1% Pen/Strep, 10% FBS, 50 ug/mL Zeocin. HEK cells were cultured in DMEM media with 2 mM L-glut, 1% Pen/Strep, 10% FBS.
Preparation of antibody-CIR/ARM stocks were mixed overnight prior to addition to the ADCC plate. In the case of mmAb and mAb, incubation was carried out at 600 nM antibody and 1.2 μM CIR or ARM. In the case of IgG from serum, incubation was completed at 230 μM antibody and 8.7 μM CIR or ARM. In all cases, DMSO was kept close to 1%. After the overnight incubation, a dilution series was completed on the antibody-CIR/ARM stocks in RPMI (1% DMSO). […] 75 μL of Bio-Glo Luciferase Assay Reagent was added to each well, and luminescence was quantified using the SpectraMax i3 plate reader. […]

Compound: O=C(O)CC[C@H](NC(=O)N[C@@H](CCCCNC(=O)NCCOCCOCCOCCOCCOCCOCCOCCOC(=O)n1cnc(CCNC(=O)CNc2ccc([N+](=O)[O-])cc2[N+](=O)[O-])c1)C(=O)O)C(=O)O [CIR 3]
- CD16α based target immune recognition: robust target immune recognition
